{"source": "ChEMBL document CHEMBL3098126", "about": "“Identification through structure-based methods of a bacterial NAD(+)-dependent DNA ligase inhibitor that avoids known resistance mutations” (Bioorg Med Chem Lett, 2014)", "key": {"[1]": {"assay": "Inhibition of wild type Streptococcus pneumoniae LigA"}, "[2]": {"assay": "Inhibition of Haemophilus influenzae LigA"}, "[3]": {"assay": "Inhibition of Enterococcus faecalis LigA"}, "DNA ligase": {"molecular_target": "DNA ligase (Staphylococcus aureus, UniProt Q9AIU7)", "sequence (Q9AIU7 whole entry)": "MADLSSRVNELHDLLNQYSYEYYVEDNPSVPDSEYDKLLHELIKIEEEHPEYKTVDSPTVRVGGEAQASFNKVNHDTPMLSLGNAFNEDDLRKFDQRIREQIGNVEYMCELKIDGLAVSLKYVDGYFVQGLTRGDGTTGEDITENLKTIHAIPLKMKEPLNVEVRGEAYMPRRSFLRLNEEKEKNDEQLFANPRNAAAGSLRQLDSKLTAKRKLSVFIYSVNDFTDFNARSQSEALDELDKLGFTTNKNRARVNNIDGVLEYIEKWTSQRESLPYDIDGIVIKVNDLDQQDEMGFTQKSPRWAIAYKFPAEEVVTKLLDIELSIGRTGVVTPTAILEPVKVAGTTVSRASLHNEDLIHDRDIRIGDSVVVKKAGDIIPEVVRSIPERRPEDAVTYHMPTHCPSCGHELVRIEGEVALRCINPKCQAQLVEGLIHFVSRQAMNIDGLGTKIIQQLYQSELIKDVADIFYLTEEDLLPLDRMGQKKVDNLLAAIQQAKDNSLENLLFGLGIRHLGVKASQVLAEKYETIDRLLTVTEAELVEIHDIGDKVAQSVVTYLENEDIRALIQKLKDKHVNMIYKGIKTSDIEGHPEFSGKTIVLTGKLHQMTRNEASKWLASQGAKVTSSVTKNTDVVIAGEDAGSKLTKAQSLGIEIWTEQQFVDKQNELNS", "assay": "Inhibition of Staphylococcus aureus LigA"}, "[4]": {"assay": "Inhibition of Streptococcus pneumoniae LigA L75F mutant"}, "Streptococcus pneumoniae [5]": {"system": "Streptococcus pneumoniae", "assay": "Antibacterial activity against Streptococcus pneumoniae ARC548", "assay_type": "functional"}, "Streptococcus pneumoniae [6]": {"system": "Streptococcus pneumoniae", "assay": "Selectivity ratio of IC50 for Streptococcus pneumoniae LigA L75F mutant to IC50 for wild type Streptococcus pneumoniae LigA"}}}
{"molecule": "NC(=O)c1cnc(N)c2c(C(N)=O)csc12", "values": [{"measurement": "IC50", "setting": "[1]", "result": 52, "unit": "µM"}, {"measurement": "IC50", "setting": "[2]", "result": "> 200", "unit": "µM"}, {"measurement": "IC50", "setting": "[3]", "result": "> 200", "unit": "µM"}, {"measurement": "IC50", "setting": "DNA ligase", "result": 69, "unit": "µM"}]}
{"molecule": "CCCNc1ncc(C(N)=O)c2sc(Br)cc12", "values": [{"measurement": "IC50", "setting": "[1]", "result": 150, "unit": "µM"}, {"measurement": "IC50", "setting": "[2]", "result": 200, "unit": "µM"}, {"measurement": "IC50", "setting": "[3]", "result": 130, "unit": "µM"}, {"measurement": "IC50", "setting": "DNA ligase", "result": 180, "unit": "µM"}]}
{"molecule": "NC(=O)c1cnc(N)c2cc(-c3ccn[nH]3)sc12", "values": [{"measurement": "IC50", "setting": "[1]", "result": 29, "unit": "µM"}, {"measurement": "IC50", "setting": "[2]", "result": "> 200", "unit": "µM"}, {"measurement": "IC50", "setting": "[3]", "result": 100, "unit": "µM"}, {"measurement": "IC50", "setting": "DNA ligase", "result": 36, "unit": "µM"}]}
{"molecule": "CCNC(=O)c1cc2c(N)ncc(C(N)=O)c2s1", "values": [{"measurement": "IC50", "setting": "[1]", "result": 140, "unit": "µM"}, {"measurement": "IC50", "setting": "[2]", "result": "> 200", "unit": "µM"}, {"measurement": "IC50", "setting": "[3]", "result": "> 200", "unit": "µM"}, {"measurement": "IC50", "setting": "DNA ligase", "result": 75, "unit": "µM"}]}
{"molecule": "NC(=O)c1cc2c(N)ncc(C(N)=O)c2s1", "values": [{"measurement": "IC50", "setting": "[1]", "result": 9.4, "unit": "µM"}, {"measurement": "IC50", "setting": "[2]", "result": "> 200", "unit": "µM"}, {"measurement": "IC50", "setting": "[3]", "result": 34, "unit": "µM"}, {"measurement": "IC50", "setting": "DNA ligase", "result": 15, "unit": "µM"}]}
{"molecule": "NC(=O)c1cnc(N)c2c(Br)csc12", "values": [{"measurement": "IC50", "setting": "[1]", "result": 36, "unit": "µM"}, {"measurement": "IC50", "setting": "[2]", "result": "> 200", "unit": "µM"}, {"measurement": "IC50", "setting": "[3]", "result": 130, "unit": "µM"}, {"measurement": "IC50", "setting": "DNA ligase", "result": 39, "unit": "µM"}]}
{"molecule": "Cc1c(Br)sc2c(C(N)=O)cnc(N)c12", "values": [{"measurement": "IC50", "setting": "[4]", "result": 37, "unit": "µM"}, {"measurement": "IC50", "setting": "[1]", "result": 3.1, "unit": "µM"}, {"measurement": "IC50", "setting": "[2]", "result": "> 200", "unit": "µM"}, {"measurement": "IC50", "setting": "[3]", "result": 8.1, "unit": "µM"}, {"measurement": "IC50", "setting": "DNA ligase", "result": 7.1, "unit": "µM"}]}
{"molecule": "Nc1nc(OC2CCCC2)nc2c1ncn2[C@@H]1O[C@H](CO)[C@@H](O)[C@H]1O", "values": [{"measurement": "IC50", "setting": "[4]", "result": 33, "unit": "µM"}, {"measurement": "IC50", "setting": "[1]", "result": 0.21, "unit": "µM"}, {"measurement": "MIC", "setting": "Streptococcus pneumoniae [5]", "result": 8, "unit": "µg/mL"}, {"measurement": "IC50", "setting": "[2]", "result": 0.51, "unit": "µM"}, {"measurement": "IC50", "setting": "DNA ligase", "result": 0.43, "unit": "µM"}]}
{"molecule": "NC(=O)c1cnc(Nc2ccccc2)c2cc(Br)sc12", "values": [{"measurement": "IC50", "setting": "[1]", "result": "> 200", "unit": "µM"}, {"measurement": "IC50", "setting": "[2]", "result": 160, "unit": "µM"}, {"measurement": "IC50", "setting": "[3]", "result": 160, "unit": "µM"}, {"measurement": "IC50", "setting": "DNA ligase", "result": 150, "unit": "µM"}]}
{"molecule": "NC(=O)c1cnc(N)c2cc(Br)sc12", "values": [{"measurement": "IC50", "setting": "[4]", "result": 48, "unit": "µM"}, {"measurement": "IC50", "setting": "[1]", "result": 21, "unit": "µM"}, {"measurement": "MIC", "setting": "Streptococcus pneumoniae [5]", "result": "> 64", "unit": "µg/mL"}, {"measurement": "IC50", "setting": "[2]", "result": 160, "unit": "µM"}, {"measurement": "IC50", "setting": "[3]", "result": 77, "unit": "µM"}, {"measurement": "Ratio IC50", "setting": "Streptococcus pneumoniae [6]", "result": 2}, {"measurement": "IC50", "setting": "DNA ligase", "result": 48, "unit": "µM"}]}
{"molecule": "NC(=O)c1cnc(NCCO)c2cc(Br)sc12", "values": [{"measurement": "IC50", "setting": "[1]", "result": "> 200", "unit": "µM"}, {"measurement": "IC50", "setting": "[2]", "result": "> 200", "unit": "µM"}, {"measurement": "IC50", "setting": "[3]", "result": "> 200", "unit": "µM"}, {"measurement": "IC50", "setting": "DNA ligase", "result": "> 200", "unit": "µM"}]}
{"molecule": "CCOC(=O)c1cc2c(N)ncc(C(N)=O)c2s1", "values": [{"measurement": "IC50", "setting": "[1]", "result": 9.4, "unit": "µM"}, {"measurement": "IC50", "setting": "[2]", "result": "> 200", "unit": "µM"}, {"measurement": "IC50", "setting": "[3]", "result": 74, "unit": "µM"}, {"measurement": "IC50", "setting": "DNA ligase", "result": 8.9, "unit": "µM"}]}
{"molecule": "NC(=O)c1cnc(N)c2ccsc12", "values": [{"measurement": "IC50", "setting": "[1]", "result": 25, "unit": "µM"}, {"measurement": "IC50", "setting": "[2]", "result": "> 200", "unit": "µM"}, {"measurement": "IC50", "setting": "[3]", "result": "> 200", "unit": "µM"}, {"measurement": "IC50", "setting": "DNA ligase", "result": "> 200", "unit": "µM"}]}
{"molecule": "NC(=O)c1cnc(N)c2c(-c3ccn[nH]3)csc12", "values": [{"measurement": "IC50", "setting": "[1]", "result": 100, "unit": "µM"}, {"measurement": "IC50", "setting": "[2]", "result": "> 200", "unit": "µM"}, {"measurement": "IC50", "setting": "[3]", "result": "> 200", "unit": "µM"}, {"measurement": "IC50", "setting": "DNA ligase", "result": "> 200", "unit": "µM"}]}
{"molecule": "Cc1cc2c(N)ncc(C(N)=O)c2s1", "values": [{"measurement": "IC50", "setting": "[1]", "result": 200, "unit": "µM"}, {"measurement": "IC50", "setting": "[2]", "result": "> 200", "unit": "µM"}, {"measurement": "IC50", "setting": "[3]", "result": "> 200", "unit": "µM"}, {"measurement": "IC50", "setting": "DNA ligase", "result": "> 200", "unit": "µM"}]}
{"molecule": "Cc1csc2c(C(N)=O)cnc(N)c12", "values": [{"measurement": "IC50", "setting": "[1]", "result": "> 140", "unit": "µM"}, {"measurement": "IC50", "setting": "[2]", "result": "> 200", "unit": "µM"}, {"measurement": "IC50", "setting": "[3]", "result": "> 200", "unit": "µM"}, {"measurement": "IC50", "setting": "DNA ligase", "result": "> 200", "unit": "µM"}]}
